ChEMBL document CHEMBL1201862, “PubChem BioAssay data set” (2004)
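Assay format: 96-well plates, 48-hour exposure. GI50 marks 50% less growth.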 Active and inactive are the calls of the source. No stated cut-off is given here; in the data, active = GI50 up to about 1.1 µM and inactive = higher.

Assays:
Test in all cases: inhibition of tumour cell growth, NCI panel, 48 h
TK-10 = system: TK-10
UO-31 = system: UO-31
MOLT-4 = system: MOLT-4
HCT-116 = system: HCT-116
SF-539 = system: SF-539
SK-OV-3 = system: SK-OV-3
KM12 = system: KM12
OVCAR-3 = system: OVCAR-3
SK-MEL-5 = system: SK-MEL-5
NCI-H23 = system: NCI-H23
EKVX = system: EKVX
SNB-75 = system: SNB-75
MDA-MB-435 = system: MDA-MB-435
HT-29 = system: HT-29
UACC-62 = system: UACC-62
SK-MEL-28 = system: SK-MEL-28
OVCAR-5 = system: OVCAR-5
NCI-H226 = system: NCI-H226
Malme-3M = system: Malme-3M
HOP-62 = system: HOP-62

Measured: GI50

NC(CCCCCP(=O)(c1ccccc1)C1C=CC=CC1)C(=O)O (stereo not drawn)
inactive: TK-10 > 100 µM | UO-31 > 100 µM | MOLT-4 > 100 µM | HCT-116 > 100 µM | SF-539 > 100 µM | SK-OV-3 > 100 µM | KM12 > 100 µM | OVCAR-3 > 100 µM | SK-MEL-5 > 100 µM | NCI-H23 > 100 µM | EKVX > 100 µM | SNB-75 > 100 µM | MDA-MB-435 > 100 µM | HT-29 > 100 µM | UACC-62 51.2 µM | SK-MEL-28 > 100 µM | OVCAR-5 > 100 µM

O=C1O[C@H](c2ccc3c(c2)OCO3)[C@H]2CO[C@@H](c3ccc4c(c3)OCO4)[C@@H]12
inactive: NCI-H226 > 100 µM | TK-10 > 100 µM | Malme-3M > 100 µM | UO-31 > 100 µM | MOLT-4 43.5 µM | HCT-116 > 100 µM | SF-539 > 100 µM | SK-OV-3 > 100 µM | KM12 > 100 µM | SK-MEL-5 42 µM | NCI-H23 78.7 µM | EKVX > 100 µM | MDA-MB-435 > 100 µM | HT-29 77.6 µM | UACC-62 88.5 µM | SK-MEL-28 > 100 µM | OVCAR-5 > 100 µM | HOP-62 > 100 µM

O=C1c2cc3c(cc2CC12Cc1ccc4c(c1C2=O)CCC4)CCC3 (stereo not drawn)
inactive: TK-10 > 100 µM | Malme-3M 41.7 µM | UO-31 > 100 µM | MOLT-4 > 100 µM | HCT-116 > 100 µM | SF-539 > 100 µM | SK-OV-3 43.8 µM | OVCAR-3 75.5 µM | SK-MEL-5 > 100 µM | NCI-H23 > 100 µM | EKVX > 100 µM | SNB-75 > 100 µM | MDA-MB-435 > 100 µM | HT-29 > 100 µM | SK-MEL-28 > 100 µM | OVCAR-5 > 100 µM | HOP-62 74 µM

CCn1nc(C)c2c1C(=O)NCC(=O)N2
inactive: TK-10 > 100 µM | UO-31 > 100 µM | HCT-116 > 100 µM | SF-539 > 100 µM | SK-OV-3 > 100 µM | KM12 > 100 µM | OVCAR-3 > 100 µM | SK-MEL-5 > 100 µM | NCI-H23 > 100 µM | EKVX > 100 µM | SNB-75 > 100 µM | MDA-MB-435 > 100 µM | HT-29 > 100 µM | UACC-62 > 100 µM | SK-MEL-28 > 100 µM | OVCAR-5 > 100 µM

CCc1nc(N)c2nc(-c3ccc(C#N)cc3)oc2n1
inactive: NCI-H226 > 100 µM | TK-10 > 100 µM | UO-31 > 100 µM | MOLT-4 > 100 µM | HCT-116 > 100 µM | SF-539 > 100 µM | KM12 > 100 µM | OVCAR-3 > 100 µM | SK-MEL-5 > 100 µM | NCI-H23 > 100 µM | EKVX > 100 µM | SNB-75 > 100 µM | MDA-MB-435 > 100 µM | HT-29 > 100 µM | UACC-62 > 100 µM | SK-MEL-28 > 100 µM | OVCAR-5 > 100 µM | HOP-62 > 100 µM

CS/C1=C(\c2ccc(C)cc2)N(c2ccccc2)C(=O)C(=O)N(c2ccccc2)/C(c2ccc(C)cc2)=C(/SC)SS1
inactive: TK-10 > 100 µM | Malme-3M > 100 µM | UO-31 > 100 µM | MOLT-4 > 100 µM | HCT-116 > 100 µM | SF-539 > 100 µM | OVCAR-3 > 100 µM | NCI-H23 > 100 µM | EKVX > 100 µM | SNB-75 > 100 µM | MDA-MB-435 > 100 µM | HT-29 > 100 µM | UACC-62 > 100 µM | SK-MEL-28 > 100 µM | OVCAR-5 > 100 µM | HOP-62 > 100 µM

CC(CC[C@@]1(C)C(=O)CCC2O[C@]21C)[C@H]1C[C@@H](c2ccoc2)OC1=O (stereo partly drawn)
inactive: NCI-H226 > 100 µM | TK-10 35.8 µM | Malme-3M 31.5 µM | UO-31 17.2 µM | MOLT-4 28.3 µM | HCT-116 19.5 µM | SF-539 35.7 µM | SK-OV-3 > 100 µM | KM12 > 100 µM | OVCAR-3 26.9 µM | SK-MEL-5 > 100 µM | NCI-H23 61.4 µM | EKVX > 100 µM | MDA-MB-435 44.1 µM | HT-29 74.5 µM | UACC-62 95.9 µM | SK-MEL-28 23.6 µM | OVCAR-5 61.1 µM | HOP-62 > 100 µM

c1ccc2c(c1)[nH]c1c2cc[n+]2cc3c(cc12)CCCC3
inactive: NCI-H226 2.03 µM | TK-10 6.68 µM | UO-31 16.3 µM | MOLT-4 1.18 µM | HCT-116 1.59 µM | SF-539 1.64 µM | SK-OV-3 3.87 µM | KM12 1.7 µM | OVCAR-3 1.16 µM | SK-MEL-5 1.54 µM | NCI-H23 2.24 µM | EKVX 4.89 µM | SNB-75 5.96 µM | MDA-MB-435 1.91 µM | HT-29 3.28 µM | SK-MEL-28 1.47 µM | OVCAR-5 2.45 µM | HOP-62 1.66 µM

COc1ccc(-c2c(C(C)=O)c(C)n(C3OC(CO)C(O)C(O)C3O)c(=S)c2C#N)cc1 (stereo not drawn)
inactive: TK-10 > 100 µM | Malme-3M 70.5 µM | UO-31 > 100 µM | MOLT-4 27.7 µM | HCT-116 86.9 µM | SF-539 36.1 µM | SK-OV-3 > 100 µM | KM12 90.6 µM | OVCAR-3 > 100 µM | SK-MEL-5 48.8 µM | NCI-H23 68.1 µM | EKVX 55.1 µM | SNB-75 80.9 µM | MDA-MB-435 72.6 µM | HT-29 > 100 µM | UACC-62 28 µM | SK-MEL-28 44.6 µM | OVCAR-5 > 100 µM | HOP-62 > 100 µM

CCCC(C(=O)Nc1cccc2nc[nH]c12)C(=O)OCC (stereo not drawn)
inactive: NCI-H226 > 100 µM | TK-10 > 100 µM | UO-31 > 100 µM | MOLT-4 > 100 µM | HCT-116 > 100 µM | SF-539 > 100 µM | SK-OV-3 > 100 µM | KM12 > 100 µM | OVCAR-3 67.8 µM | EKVX > 100 µM | SNB-75 > 100 µM | MDA-MB-435 > 100 µM | HT-29 > 100 µM | UACC-62 > 100 µM | SK-MEL-28 > 100 µM | OVCAR-5 > 100 µM | HOP-62 > 100 µM

N=C1NC(c2ccc(Cl)cc2)=CC(c2cccc(Cl)c2)S1 (stereo not drawn)
inactive: NCI-H226 26.7 µM | TK-10 22.4 µM | Malme-3M 38 µM | UO-31 29 µM | MOLT-4 37.4 µM | HCT-116 26.4 µM | SF-539 48.8 µM | SK-OV-3 36.3 µM | KM12 27 µM | OVCAR-3 41.7 µM | SK-MEL-5 27 µM | NCI-H23 34.8 µM | EKVX 25.4 µM | MDA-MB-435 18.2 µM | HT-29 30.8 µM | UACC-62 18.8 µM | OVCAR-5 66.8 µM | HOP-62 38.7 µM
